Assay results as given in patent US6593084B2, “Carcinogen assay” (priority 1998, dated 2003).

Legend:
[1] = system: primary mouse keratinocytes; test: Differential display and Northern blot hybridization of mRNAs in treated primary mouse keratinocytes; format: cell-based; settings: 24 hours treatment
Experimental: Cultures of newborn mouse keratinocytes were established essentially as described by H. Hennings (In Keratinocyte Methods, Cambridge University Press (1994), pages 21-23). Briefly, mice two to three days postpartum were sacrificed by metaphane narcosis, rinsed in 70% ethanol, and kept on ice. Skins were peeled off, stretched out and floated (with epidermis facing upward) on the surface of a 0.25% trypsin solution in Ca^+2, Mg^+2 free PBS overnight at 4° C. Skins were transferred to a sterile surface, the epidermis was separated from dermis, the epidermis was minced, and the mixture stirred in serum-free keratinocyte growth medium (KGM, Clonetics). This cell suspension was filtered through nylon gauze, cells were centrifuged (2,000 rpm for 5 min), resuspended in KGM with 20 μM Ca^+2 (20 KGM), and then the cells were counted and plated (approximately 2×10^6 per 10 cm plate coated with mouse collagen type IV in 20 KGM) and the cell cultures were incubated at 37° C. with a 7% CO2. After 16-24 hours, cells were washed in Ca^+2, Mg^+2 free phosphate buffered saline (PBS), and cultivated on 20 KGM, with the cell culture medium changed (that is, old medium discarded and fresh medium provided) each other day. For induction of terminal differentiation, medium was changed, usually on the sixth day of cultivation of the keratinocytes, to KGM containing 1.2 mM Ca^+2, and the keratinocytes were cultivated for 24 hours before RNA isolation.
For phorbol-myristate acetate (TPA) treatment, keratinocyte cultures were fed with 20 KGM containing 0.1 μg/ml of 12-O-tetradecanoyil-13-phorbol-acetate for 24 hours, before isolation of RNA.
Total RNA was isolated by acid phenol procedure using TRI Reagent™ (Molecular Research Center, Inc.) and according to manufacturer's instructions from (1) terminally differentiated keratinocytes, cultivated in KGM medium containing 1.2 mM Ca^+2 for 24 hours; (2) TPA-treated keratinocytes, cultivated in KGM containing 20 μM Ca^+2 and 0.1 μg/ml TPA for 24 hours; and (3) control keratinocyte cultures fed 24 hours before RNA isolation with 20 KGM containing, in some experiments, 0.05% DMSO (dimethyl sulphoxide).
Differential display of total RNAs from keratinocyte cultures (1), (2), and (3) was performed with Delta-RNA Fingerprinting Kit™ (Clontech) according to the manufacturer's instructions. Briefly, cDNAs were synthesized from total RNAs using Murine Moloney Leukemia Virus (MMLV) reverse transcriptase. Two dilutions of cDNA were prepared (diluted 10-fold and 40-fold). Each total RNA sample was used to synthesize cDNA that was amplified using polymerase chain reaction (PCR) methodology using P & T primers in presence of [α-^33P] dATP. […] The appearance of a band from a sample that was not present in the control lane indicated overexpression and the disappearance or reduction in intensity of a band indicated suppression of synthesis. The candidate bands were cut from the sequencing gel and reamplified using the original primer pairs. Following electrophoresis on agarose gels, reamplified DNA fragments were cut out and purified using a QIAEX II gel extraction kit™ (QIAGEN). The DNAs were labeled and used to confirm the differential expression by hybridization with Northern blots of Poly (A)^+ containing RNA isolated from total RNAs (1), (2), and (3). Equal quantities of these RNAs were electrophoresed on agarose gels and blotted to nitrocellulose filters. Equal loading of RNA was confirmed by hybridization with a β-actin probe, whose mRNA was assumed to be present in approximately equal amounts in all of the preparations. The blots were stripped of radiolabel and then used to confirm the differential synthesis of a fragment. Upon confirmation, the fragment was cloned into pCRII using the TA cloning kit™ (Introvitrogen). Cloned DNA fragments were sequenced with SequiTerm Excel II kit™ (Epicentre Technology).

mouse liver = test: Differential gene expression in livers of DMBA treated mice, Atlas membranes; settings: liver of DMBA treated animal vs control animal
mice = settings: cited from earlier work
Salmonella = settings: cited from earlier work
mammalian cells = mammalian cells in vitro; cited from earlier work

## CCCCCCCCCCCCCC(=O)O[C@@H]1[C@@H](C)[C@@]2(O)[C@@H](C=C(CO)C[C@]3(O)C(=O)C(C)=C[C@@H]23)[C@@H]2C(C)(C)[C@]12OC(C)=O [TPA, 12-O-tetradecanoyil-13-phorbol-acetate]
[1]; gene fragment 2552/4, 5.5 kb RNA
  Changes in Expression (Comparative to Untreated cells): Suppressed in TPA-
[1]; gene fragment 2672/1, Mouse ESTs AA492919, AA607761
  Changes in Expression (Comparative to Untreated cells): Suppressed in TPA-
[1]; gene fragment 4314, AA109991, AA561914, AA067670, AA864127
  Changes in Expression (Comparative to Untreated cells): Overexpressed in
[1]; gene fragment 19102/3, Mouse ESTs AA038613, W14382
  Changes in Expression (Comparative to Untreated cells): Suppressed in TPA-
[1]; gene fragment 31774/6/8, 6 kb RNA, Mouse ESTs AA423711, W82493
  Changes in Expression (Comparative to Untreated cells): Suppressed in TPA-
[1]; gene fragment 31777, Mouse EST AA073833
  Changes in Expression (Comparative to Untreated cells): Overexpressed in
[1]; gene fragment 83442, Mouse Connexin 26
  Changes in Expression (Comparative to Untreated cells): Overexpressed in
[1]; gene fragment 110176/4, homologous to Mouse Cytokeratin Endo A
  Changes in Expression (Comparative to Untreated cells): Suppressed in TPA-
[1]; gene fragment 3177715, Mouse ESTs AA423711, AA637015
  Changes in Expression (Comparative to Untreated cells): Suppressed in TPA-

## Cc1c2ccccc2c(C)c2c1ccc1ccccc12 [DMBA, 7, 12-dimethyl benz[α] anthracene]
Mouse liver
  differential pattern of gene expression in liver: differential expression was observed

## c1ccoc1 [Furan]
mice
  induction of hepatocellular carcinomas: induce hepatocellular carcinomas
Salmonella
  Salmonella mutagenicity test: negative
Mammalian cells
  chromosomal aberrations: induces
  gene mutations: induces
  sister chromatide exchanges: induces

## ClC=C(Cl)Cl [TCE, trichloroethylene]
mice
  induction of hepatocellular carcinomas: induce hepatocellular carcinomas
Salmonella
  Salmonella mutagenicity test: negative
